{"source": "patent EP1285971B1", "about": "“Methods for the phenotypic and genotypic assessment of the drug sensitivity of HIV integrase variants” (Tibotec Pharmaceuticals Ltd., priority 2001, dated 2003)", "key": {"WT III B": {"test_system": "WT III B", "assay": "microbe, parasite or virus in culture", "assay_type": "cell-based, HIV-1", "conditions": "for fold change: fold change in EC50", "description": "(§1) The integrase encoding sequence was amplified from either wildtype HIV-1 (IIIB) or NL4.3 virus, or HXB2D site-directed mutant viruses containing mutations in integrase (such as T66I, S153Y, M154I, or combinations thereof) (Hazuda et al., Science 2000, 287, 646-650), or patient samples. Starting from RNA, extracted from virus supernatant or plasma using the QIAamp® viral RNA extraction kit (Qiagen), cDNA was synthesized by reverse transcription (Expand TM reverse transcriptase, 30 min at 42°C) with the primer 3'EGINT10 (SEQ ID NO 11), followed by a nested PCR. The outer PCR was performed with the primers 5'EGINT1 (SEQ ID NO 1) and 3'EGINT10 (SEQ ID NO 11) (ΔR-IN-vif construct) or 5'EGINT3 (SEQ ID NO 4) and 3'EGINT10 (SEQ ID NO 11) (ΔIN construct) (Expand™ High Fidelity PCR system), and 5 µl of the outer product was used for an inner PCR with primers 5'EGINT2 (SEQ ID NO 3) and 3'EGINT11 (SEQ ID NO 12) (ΔR-IN-vif construct) or 5'EGINT4 (SEQ ID NO 5) and 3'EGINT6 (SEQ ID NO 7) (ΔIN construct). In a second protocol the outer primers were identical as described above, the inner primers are 5'EGINT5 (SEQ ID NO 6) and 3'EGINT6 (SEQ ID NO 7). The amplicons can be used for genotyping and phenotyping. Cycling conditions for both PCRs are denaturation for 3 min at 95°C, followed by 30 cycles of 1 min 90°C, 30 sec 55°C, and 2 min 72°C. A final extension was performed at 72°C for 10 min. For recombination, PCR products are purified using the QiaQuick® 96 PCR BioRobot kit (Qiagen), according to the manufacturer's protocol. If the protocol starts from DNA containing the HIV material such as proviral DNA, the reverse transcriptase step is not needed. The nested approach is also not needed when starting from proviral DNA. The obtained amplicons were sequenced using the primers: In_seq1F (SEQ ID NO 17), In_seq2F (SEQ ID NO 18), In_seq3F (SEQ ID NO 19), IN_seq1R (SEQ ID NO 20), IN_seq2R (SEQ ID NO 21), and IN_seq3R (SEQ ID NO 22).\n(§2) A ΔR-IN-vif or ΔIN deletion construct was generated by site-directed mutagenesis on the template pSV40HXB2D with the primers MUT-IN1 (SEQ ID NO 13) and MUT-IN2 (ΔR-IN-vif construct) (SEQ ID NO 14) or MUT-IN3 (SEQ ID NO 15) and MUT-IN4 (SEQ ID NO 16) (ΔIN construct) (protocol Site-directed mutagenesis kit, Stratagene). After DpnI digestion for removal of the methylated template DNA, the construct was digested with SmaI and ligated to circulize the plasmid. The plasmid was transformed into competent cells such as Top10 cells, and colonies were screened for the presence of the deletion construct. The IN-deletion construct was checked by sequence analysis with primers 5'EGINT1 (SEQ ID NO 1) or […] and 3'EGINT10 (SEQ ID NO 11) or 3'EGINT11 (SEQ ID NO 12). For use in recombination experiments, large-scale plasmid DNA preparations were linearized by SmaI digestion and recombined with PCR amplified integrase genes from wild type, mutant, or patient viruses. The plasmid containing the integrase deletion (ΔIN) has been deposited pSV40HXB2D-ΔIN. The sequence of said plasmid is 14377 nucleotides long. The ΔR-IN-vif deletion construct is 13975 nucleotides long. The pSV40HXB2D-ΔIN was deposited at the Belgian Coordinated Collections of Micro-Organisms located at the Universiteit Gent - Laboratorium voor Moleculaire Biologie on August 5, 2002 and the accession number is LMBP 4574.\n(§3) Recombinant virus was produced by co-transfection by electroporation of the SmaI-linearized IN-deletion construct and the integrase amplicon into MT4 cells or MT4 cells equipped with an LTR driven reporter gene construct. Production of recombinant virus was evaluated by scoring the cytopathogenic effect (CPE) that is induced by HIV-infection of MT4 cells or by the LTR-driven reporter signal induced by HIV infection in MT4 reporter cells."}, "NL 4-3": {"test_system": "NL 4-3", "assay": "microbe, parasite or virus in culture", "assay_type": "cell-based, HIV-1", "conditions": "for fold change: fold change in EC50", "description": "as §1, §2, §3"}, "patient_146514": {"test_system": "patient_146514", "assay": "microbe, parasite or virus in culture", "assay_type": "cell-based, HIV", "description": "as §1, §2, §3"}, "T66I mutation": {"test_system": "T66I mutation", "assay": "Antiviral assay with recombinant virus generated from site-directed mutant virus", "assay_type": "cell-based, HIV", "description": "as §1\n(§4) Recombinant virus was produced by co-transfection by electroporation of the SmaI-linearized IN-deletion construct and the integrase amplicon into MT4 cells or MT4 cells equipped with an LTR driven reporter gene construct. Production of recombinant virus was evaluated by scoring the cytopathogenic effect (CPE) that is induced by HIV-infection of MT4 cells or by the LTR-driven reporter signal induced by HIV infection in MT4 reporter cells. Green fluorescent protein was used as the reporter signal. Viruses are harvested and titrated at maximum CPE. For recombination the deletion construct pSV40HXB2D-ΔIN was used. Recombination experiments were performed with amplicon from wildtype HIV IIIB and NL4.3, and patient sample 146514 generated by both primer sets. For each recombination 2 µg amplicon was co-transfected with 10 µg SmaI-digested pSV40HXB2D-ΔIN by electroporation into MT4-LTR-EGFP cells. Virus stocks were titrated and tested in an antiviral experiment on a reference panel including nucleoside reverse transcriptase inhibitors (NRTI), non- nucleoside reverse transcriptase inhibitors (NNRTI), protein inhibitor (PR), entry and integrase (IN) inhibitors (Table 2). Recombination was checked by nucleic acid sequence analysis using protocols known to the person skilled in the art. Sequencing primers which can be used are In_seq1F (SEQ ID NO 17), In_seq2F (SEQ ID NO 18), In_seq3F (SEQ ID NO 19), IN_seq1R (SEQ ID NO 20), IN_seq2R (SEQ ID NO 21), and IN_seq3R (SEQ ID NO 22)."}, "S153Y": {"test_system": "S153Y", "assay": "Antiviral assay with recombinant virus generated from site-directed mutant virus", "assay_type": "cell-based, HIV", "description": "as §1, §4"}, "T661/M154I mutations": {"test_system": "T661/M154I mutations", "assay": "Antiviral assay with recombinant virus generated from site-directed mutant virus", "assay_type": "cell-based, HIV", "description": "as §1, §4"}, "M154I mutation": {"test_system": "M154I mutation", "assay": "Antiviral assay with recombinant virus generated from site-directed mutant virus", "assay_type": "cell-based, HIV", "description": "as §1, §4"}, "T66I/S153Y mutations": {"test_system": "T66I/S153Y mutations", "assay": "Antiviral assay with recombinant virus generated from site-directed mutant virus", "assay_type": "cell-based, HIV", "description": "as §1, §4"}}, "data": [{"molecule": "CC(C)Oc1ccc(Cc2ccccc2)cc1C(=O)CC(=O)C(=O)O", "note": "[Compound 4, 2-(1-methylethyloxy)-α,γ dioxo-5-(phenylmethyl)-benzenebutanoic acid]", "values": [{"measurement": "fold change", "setting": "WT III B; AVE 3, WT III B, primer set 3", "value": "0,4"}, {"measurement": "fold change", "setting": "WT III B; AVE 5, WT III B, primer set 4", "value": "0,7"}, {"measurement": "EC50", "setting": "WT III B; Human immunodeficiency virus 1, AVE 3, WT III B, primer set 3", "value": 106, "unit": "nM"}, {"measurement": "EC50", "setting": "WT III B; Human immunodeficiency virus 1, AVE 5, WT III B, primer set 4", "value": 186, "unit": "nM"}, {"measurement": "fold change", "setting": "NL 4-3; AVE 1, NL 4-3, primer set 3", "value": "0,6"}, {"measurement": "fold change", "setting": "NL 4-3; AVE 4, NL4-3, primer set 4", "value": "0,9"}, {"measurement": "EC50", "setting": "NL 4-3; Human immunodeficiency virus 1, AVE 1, NL 4-3, primer set 3", "value": 172, "unit": "nM"}, {"measurement": "EC50", "setting": "NL 4-3; Human immunodeficiency virus 1, NL43, AVE 4, NL4-3, primer set 4", "value": 242, "unit": "nM"}, {"measurement": "fold change", "setting": "patient_146514; AVE 2, patient_146514, primer set 3, fold change in EC50", "value": "1,0"}, {"measurement": "EC50", "setting": "patient_146514; Human immunodeficiency virus 1, AVE 2, patient_146514, primer set 3", "value": 280, "unit": "nM"}, {"measurement": "fold increase in EC50", "setting": "T66I mutation", "value": 2, "unit": "fold"}, {"measurement": "fold increase in EC50", "setting": "S153Y", "value": 5, "unit": "fold"}, {"measurement": "fold increase in EC50", "setting": "T661/M154I mutations", "value": 10, "unit": "fold"}, {"measurement": "fold increase in EC50", "setting": "M154I mutation", "value": 3, "unit": "fold"}, {"measurement": "fold increase in EC50", "setting": "T66I/S153Y mutations", "value": 10, "unit": "fold"}]}]}
